Test systems include DU-145; EKVX; HCT-116; HCT-15; HOP-62; MDA-MB-435; MDA-N; MOLT-4; NCI-H226; NCI-H460; OVCAR-3; SF-268; SF-295; SK-MEL-28; SK-MEL-2; SK-MEL-5; SN12C; T47D; TK-10; U-251.
Common to all, as to test: NCI tumour cell line growth inhibition, 48 h

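Where inhibition never reached the appropriate level, the endpoint shown equals the highest concentration tested. Otherwise, values were interpolated linearly from a five-concentration, 48-hour dose response in 96-well plates. GI50: concentration for 50% inhibition of growth.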 Active and inactive are the calls of the source. No stated cut-off is given here; in the data, active = GI50 up to about 1.1 µM and inactive = higher. Residues, ends and D or L forms follow the SMILES beside them. *: point of attachment. Bn = c1ccc(C*)cc1

Turning to `O=C1C=CC2(O[C@H](c3ccccc3)[C@@H](c3ccccc3)O2)C(SC(=O)c2ccccc2)C1` (stereo not given in full), the GI50 in the assay on DU-145 is 3.34 µM (inactive); with EKVX it was 0.182 µM (active); with HCT-116, 0.355 µM (active); in the assay on HCT-15 it was 0.673 µM; with HOP-62, 1.38 µM (inactive); with MDA-MB-435 it was 2.02 µM (inactive). The GI50 in the assay with MDA-N is 1.43 µM (inactive); with MOLT-4 it was 0.35 µM (active); in the assay with NCI-H226 it was 1.74 µM (inactive); with NCI-H460 it was 3.02 µM (inactive); in the assay on OVCAR-3, 1.79 µM (inactive); with SF-268, 1.3 µM (inactive). Moreover, the GI50 in the assay with SF-295 is 2.91 µM (inactive); in the assay with SK-MEL-28 it was 1.79 µM (inactive); with SK-MEL-2, 1.72 µM (inactive); with SK-MEL-5 it was 1.47 µM (inactive); with SN12C, 2.33 µM (inactive); in the assay on T47D it was 2.06 µM (inactive). Moreover, the GI50 was 1.68 µM (inactive) in the assay with TK-10 and 1.56 µM (inactive) in the assay with U-251.
For `O=C(NC(Nc1ccc(F)c(Cl)c1)(C(F)(F)F)C(F)(F)F)C(C(F)(F)F)C(F)(F)F`, the GI50 is 27.5 µM (inactive) in the assay with DU-145; 68.4 µM (inactive) in the assay on EKVX; 16 µM (inactive) with HCT-116; 18.1 µM in the assay with HCT-15; > 100 µM (inactive) with HOP-62; 26.5 µM (inactive) in the assay with MDA-MB-435. For the same molecule, the GI50 with MDA-N was 28.5 µM (inactive); in the assay with MOLT-4 it was 15 µM (inactive); in the assay on NCI-H226, 24.1 µM (inactive); in the assay on NCI-H460, 36.1 µM (inactive); in the assay with OVCAR-3 it was 26.9 µM (inactive); in the assay with SF-268, 29.1 µM (inactive). Further, the GI50 in the assay with SF-295 was 36.5 µM (inactive); with SK-MEL-28, 50.7 µM (inactive); in the assay with SK-MEL-2, 16.6 µM (inactive); with SK-MEL-5, 21.4 µM (inactive); in the assay on SN12C it was 32.5 µM (inactive); in the assay with T47D it was 44.3 µM (inactive). Besides, the figures for the GI50 with TK-10 and with U-251 were 36.4 µM (inactive) and 29.2 µM (inactive), respectively.
As to `COC(=O)C(CC(C)C)NC(=O)C(N)Cc1ccc(OCc2ccccc2)cc1` (stereo not given) (H-Tyr(Bn)-Leu-OMe; configuration not given here), the GI50 was > 10 µM (inactive) in the assay with DU-145; > 10 µM (inactive) in the assay with EKVX; > 10 µM (inactive) in the assay on HCT-116; above 10 µM in the assay on HCT-15; > 10 µM (inactive) with HOP-62; > 10 µM (inactive) in the assay with MDA-MB-435. Moreover, the GI50 in the assay with MDA-N, with MOLT-4, in the assay with NCI-H226, in the assay on NCI-H460, in the assay on OVCAR-3 and with SF-268 was > 10 µM (inactive) each time. Besides, the GI50 with SF-295, with SK-MEL-28, in the assay with SK-MEL-2, in the assay on SK-MEL-5, in the assay with SN12C and in the assay with T47D was > 10 µM (inactive) in each case. Also, the GI50 with TK-10 and in the assay on U-251 was > 10 µM (inactive) in each case.
As to `NC(Cc1ccccc1)C(=O)O` (stereo not drawn) [DL-PHENYLALANINE], the GI50 with DU-145 was > 100 µM (inactive); in the assay with EKVX, > 100 µM (inactive); in the assay with HCT-116, > 100 µM (inactive); in the assay with HCT-15, above 100 µM; with HOP-62, > 100 µM (inactive); in the assay with MDA-MB-435, > 100 µM (inactive). Moreover, the GI50 in the assay on MDA-N, in the assay with MOLT-4, in the assay on NCI-H226, in the assay on NCI-H460, in the assay on OVCAR-3 and in the assay with SF-268 was > 100 µM (inactive) in each case. Also, the GI50 in the assay on SF-295, with SK-MEL-28, in the assay on SK-MEL-2, in the assay on SK-MEL-5, in the assay with SN12C and in the assay on T47D was > 100 µM (inactive) throughout. Also, the GI50 in the assay with TK-10 and in the assay on U-251 was > 100 µM (inactive) throughout.
